Test [1] in a line: Compound was tested for the inhibition of Escherichia coli glutamyl-t-RNA synthetase.
Test [2] can be described thus: Compound was tested for the inhibition of aminoacyl tRNA Synthetase.

Data on 5 compounds can be found in BindingDB's records for doi:10.1016/S0960-894X(97)00434-4 (1997).

pKi: −log10 of the molar value.

The pKi is −log10 of the Ki, conventionally taken in molar units. Read a high pKi as a low Ki.

Compound `NC(CCC(=O)O)C(=O)OC[C@H]1OC(O)[C@H](O)[C@@H]1O` (stereo not given in full) showed a negative logarithm of the Ki (pKi) in test [1] of 3.30.

In test [1], `NC(CCC(=O)O)C(=O)OC[C@@H]1CCCN1` (stereo not given in full) had a pKi of 1.94.

As for `NC(CCC(=O)O)C(=O)OC[C@H]1CCCN1` (stereo not given in full), the negative-log Ki (pKi) in test [1] is 3.42. On the same count and under the same terms, the figure for `NC(CCC(=O)O)C(=O)OC[C@H]1C[C@@H](O)C[C@@H](CO)N1` (stereo partly drawn) [4-ammonio-5-{[(2R,4S,6S)-4-hydroxy-6-(hydroxymethyl)piperidin-2-yl]methoxy}-5-oxopentanoate] is 4.70. For the compound `COc1cc(CNC(=O)CCCC/C=C/C(C)C)ccc1O` [Zostrix], the pKi in test [2] is 4.38.
